Results taken from US20240216549A1, “ENHANCEMENT OF TREATMENT WITH IMMUNOTHERAPEUTIC AGENTS” (ACT THERAPEUTICS LTD, priority 2021, published 2024).

Test system: subcutaneous prostate cancer model (PC3)
Assay: Tumour specific uptake of Evans Blue vs. Enhancement MI
Format: in vivo, mice
Details: ACT, Enhancement 0.5 MHz MI 0.2, compared to MI=0 (no ultrasound); 30 min after treatment
Description: To investigate the effect of MI variance of the US Enhancement field, tumour specific uptake of Evans Blue (EB, fluorescent dye) has been investigated in a subcutaneous prostate cancer model (PC3) in mice. Five groups with Enhancement insonation MIs of 0, 0.1, 0.2, 0.3 and 0.4 were investigated (N=3 animals per group). […] 30 min after treatment, the tumours were excised and the amount of EB was measured by spectrophotometry at 620 nm.

- increase in tumour specific uptake: ~60%
Compound: Cc1cc(-c2ccc(/N=N/c3ccc4c(S(=O)(=O)O)cc(S(=O)(=O)O)c(N)c4c3O)c(C)c2)ccc1/N=N/c1ccc2c(S(=O)(=O)O)cc(S(=O)(=O)O)c(N)c2c1O [Evans Blue]
